Results reported in patent US20240269299A1, “POLYETHYLENE GLYCOL-DRUG CONJUGATE AND USE THEREOF” (CHONGQING UPGRA BIOTECHNOLOGY CO. LTD., priority 2021, published 2024).

System: choroidal neovascularization (CNV)
Assay: Laser modeling of choroidal neovascularization (CNV) in mice
Format: in vivo, C57BL/6J suckling mice
Settings: 1 μL injected into vitreous space one week after photocoagulation
Procedure: Experimental animals: C57BL/6J suckling mice, where the mice were all female and subjected to laser modeling three days after birth.
A mixed solution of 20% V/V PEG300, 20% V/V anhydrous ethanol and 60% V/V normal saline was used as a solvent for compound 39-205 to prepare a 20 mg/mL solution for use in mice No. 6 and No. 7, respectively. A saline solution of aflibercept was used as a positive control for mouse No. 5.
After the mice were anesthetized, a semiconductor laser was used to perform retinal photocoagulation around optic discs under a retinoscope. An irradiation site was between blood vessels that were one optic disc diameter away from the optic disc. The generation of bubbles after photocoagulation was an indicator of breaking Bruch's membrane. The laser modeling conditions for mice No. 6 and No. 7 were 350 mw and 200 ms, and the laser modeling conditions for mouse No. 5 were 300 mw, 260 ms, and the photocoagulation time was 1 s. One week after photocoagulation, medication treatments started for the mice. The administration method was: 1 μL of each of the 20 mg/mL solution of compound 39-205 prepared above and a normal saline solution of aflibercept was injected into vitreous space.

aflibercept
area of the laser spot after administration (compound 39-205 as 20 mg/mL solution, aflibercept in normal saline, FIG. 1 to FIG. 4): did not significantly reduce | fundus angiography after administration (mouse No. 5, FIG. 1): not significantly improved
